Consider eight molecules from PubChem BioAssay (NCI).

The structures appear in SMILES notation.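 Results reflect a 48-hour exposure of cells in 96-well plates to compound at five concentrations. GI50 marks 50% less growth. TGI: concentration producing complete growth inhibition.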

Some test systems named below: ACHN renal; SW-620 colon; A549 NSCLC; EKVX NSCLC; HL-60(TB) leukemia; MDA-MB-231 breast; NCI-H23 lung; OVCAR-4 ovarian; MDA-MB-435; RXF 393 renal.
Common to all, as to experiment: NCI tumour cell line growth inhibition, 48 h

As for `OC1CCCC2CCC[N-]C12.OC1CCCC2CCC[N-]C12.[O]=[V][OH]` (stereo not given), the GI50 in the assay on ACHN renal was 8.21 µM; with SW-620 colon, 3.5 µM; in the assay on A549 NSCLC, 5.23 µM; with EKVX NSCLC it was 3.62 µM; in the assay with HL-60(TB) leukemia, 2.61 µM; with MDA-MB-231 breast, 3.55 µM. The GI50 in the assay on NCI-H23 lung is 7.22 µM; with OVCAR-4 ovarian, 3.05 µM; in the assay on MDA-MB-435, 7.44 µM; in the assay on RXF 393 renal it was 15.6 µM. In addition, the TGI is greater than 100 µM with ACHN renal; 37.5 µM with SW-620 colon; greater than 100 µM in the assay on A549 NSCLC; 22.8 µM in the assay on EKVX NSCLC; 8.4 µM in the assay on HL-60(TB) leukemia; 16.5 µM in the assay on MDA-MB-231 breast. Further, the TGI in the assay with NCI-H23 lung was 52.6 µM; in the assay with OVCAR-4 ovarian, greater than 100 µM; with MDA-MB-435, greater than 100 µM; with RXF 393 renal, 35.4 µM.
On to `Cc1c2ccncc2c(C)c2c1sc1ccccc12`, for which the TGI with ACHN renal was determined as 15.7 µM; in the assay on SW-620 colon, 22.1 µM; with A549 NSCLC it was 18.3 µM; in the assay with EKVX NSCLC it was 25.2 µM; in the assay on HL-60(TB) leukemia, 17.3 µM; in the assay on MDA-MB-231 breast it was 44.1 µM. Besides, the TGI worked out at 25.2 µM in the assay with NCI-H23 lung, 37.8 µM in the assay with OVCAR-4 ovarian, 39.3 µM with MDA-MB-435 and 23.9 µM in the assay on RXF 393 renal.
For the molecule `Oc1ccc(C(O)(c2ccccc2)c2ccccc2)c2ccccc12`, the TGI was 3.73 µM with ACHN renal; 9.64 µM in the assay on SW-620 colon; 11.9 µM with A549 NSCLC; 26.4 µM in the assay on EKVX NSCLC; greater than 100 µM with HL-60(TB) leukemia; 5.27 µM in the assay with MDA-MB-231 breast. The TGI with NCI-H23 lung was 11.8 µM; in the assay with OVCAR-4 ovarian, 20.7 µM; with MDA-MB-435, 6.01 µM; in the assay with RXF 393 renal, greater than 100 µM.
In the case of `Nc1ncc(-c2ccc3ncnc(N4CCc5ccc(Cl)cc54)c3c2)cc1C(F)(F)F`, the GI50 in the assay with ACHN renal was 0.569 µM; in the assay on SW-620 colon it was 3.55 µM; with A549 NSCLC, 1.29 µM; with EKVX NSCLC, 0.507 µM; with HL-60(TB) leukemia it was 0.723 µM; with MDA-MB-231 breast, 1.29 µM. The GI50 with NCI-H23 lung is 3.79 µM; with OVCAR-4 ovarian, 1.07 µM; with MDA-MB-435, 1.68 µM; with RXF 393 renal, 0.181 µM. Also, the TGI is 13.2 µM in the assay with ACHN renal; 37.3 µM in the assay on SW-620 colon; 14 µM in the assay with A549 NSCLC; 18.7 µM in the assay with EKVX NSCLC; greater than 100 µM with HL-60(TB) leukemia; 12.4 µM in the assay with MDA-MB-231 breast. The TGI in the assay on NCI-H23 lung amounted to 29.4 µM; in the assay with OVCAR-4 ovarian it was 3.23 µM; with MDA-MB-435 it was 13.5 µM; with RXF 393 renal, 0.864 µM.
Consider `CCOc1ccc(C(C[N+](=O)[O-])Sc2ccccc2N)cc1` (stereo not given), for which the GI50 in the assay on ACHN renal is 11.1 µM; in the assay with SW-620 colon, 1.73 µM; in the assay on A549 NSCLC it was 7.82 µM; with EKVX NSCLC, 14.8 µM; in the assay with HL-60(TB) leukemia, 2.27 µM; in the assay with MDA-MB-231 breast, 2.43 µM. Besides, the GI50 was 8.71 µM in the assay on NCI-H23 lung, 13 µM in the assay on OVCAR-4 ovarian, 2.25 µM in the assay with MDA-MB-435 and 2.1 µM in the assay on RXF 393 renal. The TGI in the assay with ACHN renal is 23.1 µM; in the assay on SW-620 colon, 4.45 µM; with A549 NSCLC, 23 µM; in the assay on EKVX NSCLC, 30 µM; with HL-60(TB) leukemia, 6.59 µM; in the assay with MDA-MB-231 breast, 7.84 µM. Also, the TGI was found to be 21.6 µM with NCI-H23 lung, 26 µM in the assay with OVCAR-4 ovarian, 6.95 µM in the assay with MDA-MB-435 and 4.6 µM with RXF 393 renal.
Turning to `O=C(Nc1cc(Cl)ccc1O)c1ccccc1Nc1ccnc(C(F)(F)F)c1`, the GI50 was 3.35 µM in the assay with ACHN renal; 3.15 µM with SW-620 colon; 3.38 µM in the assay on A549 NSCLC; 2.92 µM in the assay with EKVX NSCLC; 1.46 µM in the assay with HL-60(TB) leukemia; 2.12 µM with MDA-MB-231 breast. Moreover, the GI50 is 2.63 µM with NCI-H23 lung, 2.29 µM with OVCAR-4 ovarian, 3.33 µM with MDA-MB-435 and 2.77 µM in the assay on RXF 393 renal. In addition, the TGI in the assay with ACHN renal is greater than 100 µM; with SW-620 colon, 11.7 µM; in the assay with A549 NSCLC it was 13.1 µM; in the assay with EKVX NSCLC, 10.4 µM; with HL-60(TB) leukemia, 4.36 µM; in the assay on MDA-MB-231 breast it was 5.19 µM. For the same molecule, the TGI in the assay on NCI-H23 lung was determined as 9.19 µM; in the assay with OVCAR-4 ovarian, 13.2 µM; in the assay on MDA-MB-435 it was 11.3 µM; in the assay on RXF 393 renal it was 10.6 µM.
Take `O=C1Cc2cc(CCn3cncn3)c(Cl)cc2N1`: the GI50 with ACHN renal was greater than 100 µM; in the assay on SW-620 colon, 6.6 µM; in the assay on A549 NSCLC, 16.5 µM; in the assay with EKVX NSCLC, 0.825 µM; in the assay on HL-60(TB) leukemia, greater than 100 µM; in the assay on MDA-MB-231 breast, 4.66 µM. Further, the GI50 in the assay with NCI-H23 lung was greater than 100 µM; in the assay on OVCAR-4 ovarian, greater than 100 µM; in the assay with MDA-MB-435 it was 3.22 µM; in the assay on RXF 393 renal, 7.48 µM. Moreover, the TGI in the assay on ACHN renal, with SW-620 colon, with A549 NSCLC, in the assay with EKVX NSCLC, in the assay on HL-60(TB) leukemia and in the assay on MDA-MB-231 breast was greater than 100 µM throughout. For the same molecule, the TGI with NCI-H23 lung, in the assay with OVCAR-4 ovarian, with MDA-MB-435 and in the assay on RXF 393 renal was greater than 100 µM each time.
Turning to `C#C[C@@]1(O)[C@@H](CO)O[C@@H](n2cc(C(F)(F)F)c3c(N)ncnc32)[C@@H]1O`, the GI50 with ACHN renal is 0.831 µM; with SW-620 colon it was 0.349 µM; in the assay with A549 NSCLC it was 0.871 µM; in the assay with EKVX NSCLC it was 1.62 µM; in the assay on HL-60(TB) leukemia, 0.278 µM; with MDA-MB-231 breast, 0.736 µM. Also, the GI50 in the assay with NCI-H23 lung was 0.651 µM; in the assay on OVCAR-4 ovarian it was 2.41 µM; in the assay on MDA-MB-435, 0.808 µM; with RXF 393 renal, 0.841 µM. Further, the TGI in the assay on ACHN renal is greater than 100 µM; in the assay with SW-620 colon, greater than 21.7 µM; in the assay with A549 NSCLC, greater than 19.7 µM; in the assay on EKVX NSCLC, greater than 25.9 µM; in the assay on HL-60(TB) leukemia, 0.984 µM; with MDA-MB-231 breast it was greater than 100 µM. The TGI with NCI-H23 lung is 8.19 µM; in the assay with OVCAR-4 ovarian it was greater than 100 µM; with MDA-MB-435 it was 11.3 µM; in the assay with RXF 393 renal it was 2.74 µM.
